In paper PMC11714206, “Massively Parallel Screening of Toll/Interleukin‐1 Receptor (TIR)‐Derived Peptides Reveals Multiple Toll‐Like Receptors (TLRs)‐Targeting Immunomodulatory Peptides” (Advanced Science, 2024):

Biological target: T1, MAL^TIR (Homo sapiens, UniProt P58753)
T1 construct: MAL (residues 79–221); 6xHis; made in house; host or cells: E. coli BL21 (DE3)
Assay: T‐Surf phage library (P8 and P3) selection against MAL^TIR, four rounds, NGS read counts
Format: binding
Conditions: for P3_MAL Rank (after) / P3_MAL Rank (before): P3 library; for Population: P3_MAL pool: P3 T-Surf phage library, 4th round of selection against MAL TIR, share of NGS reads; for P8_MAL Rank (after) / P8_MAL Rank (before): P8 library
How it was run: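 P8 and P3 T‐Surf libraries panned against plate-coated TIR domains (5 µg mL^−1), 1 h binding at RT, acid elution and TG1/helper-phage amplification per round. After four rounds, pools were PCR-barcoded and sequenced (NovaSeq, 100 bp paired-end, Phred ≥30); peptides ranked by read counts.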

[1] = selection against MAL TIR, rank by count after grouping
[2] = selection against MAL TIR, rank by count before grouping
[3] = P3_MAL: rank by count after grouping
[4] = P3_MAL: rank by count before grouping
[5] = selection against MAL, rank by count after grouping
[6] = selection against MAL, rank by count before grouping
[7] = 4R selection against MAL, rank after grouping
[8] = 4R selection against MAL, rank before grouping
[9] = selection against MAL, rank after grouping
[10] = selection against MAL, rank before grouping
[11] = P8_MAL: rank by count after grouping
[12] = P8_MAL: rank by count before grouping

T1 sequence (P58753 79-221): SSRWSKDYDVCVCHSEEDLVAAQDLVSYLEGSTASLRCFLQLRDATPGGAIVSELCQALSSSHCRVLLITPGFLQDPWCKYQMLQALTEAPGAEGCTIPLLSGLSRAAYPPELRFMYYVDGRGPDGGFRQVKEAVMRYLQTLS

PNLRTKLLNSLMRTKT was tested, and the “P3_MAL Rank (after)” value [1] was 273 and the “P3_MAL Rank (before)” value [2] was 2682.

In the case of PNLRTKLLNYLIRTKT, the “P3_MAL Rank (after)” value [1] is reported as 280 and the “P3_MAL Rank (before)” value [2] is reported as 2694.

With PNLRTKLLNYLMHTKT the “P3_MAL Rank (after)” value [1] was 247 and the “P3_MAL Rank (before)” value [2] was 2742.

With PNLRTKVLAYLNRTKT the “P3_MAL Rank (after)” value [1] was 240 and the “P3_MAL Rank (before)” value [2] was 2701.

In the case of PNLRTKVLDYLLRTKT, the “Rank (after)” value [3] is reported as 406 and the “Rank (before)” value [4] is reported as 2702.

For PNLRTKVLHHLMRTKP, the “Rank (after)” value [3] was 405 and the “Rank (before)” value [4] was 2706.

For PNLRTKVLNSLMSTKT, the “Rank (after)” value [3] was 477 and the “Rank (before)” value [4] was 2709.

In the case of PNLRTKVLNYLFRTNT, the “P3_MAL Rank (after)” value [1] is reported as 237 and the “P3_MAL Rank (before)” value [2] is reported as 2711.

With PNLRTKVLNYLILTKT the “Rank (after)” value [3] was 190 and the “Rank (before)” value [4] was 2747.

With PNLRTKVLNYLMRIKT the Population was 0.00413%.

For PNLRTKVLNYLMRNKT, the Population was 0.00526%.

PNLRTKVLNYLMRSKT was tested, and the Population was 0.00451%.

With PNLRTKVLNYLMRTK the “Rank (after)” value [3] was 174 and the “Rank (before)” value [4] was 955.

With PNLRTKVLSYLMRTKT the Population was 0.00376%.

For PNLRTKVLSYLMRTTT, the “P3_MAL Rank (after)” value [1] was 270 and the “P3_MAL Rank (before)” value [2] was 2674.

PNLRTKVLSYPMRTMT was tested, and the “P3_MAL Rank (after)” value [5] was 741 and the “P3_MAL Rank (before)” value [6] was 2707.

For PNLRTKVLYYPMRTKT, the “P3_MAL Rank (after)” value [7] was 624 and the “P3_MAL Rank (before)” value [8] was 2699.

For PNLRTKVMNYLIRTKP, the “P3_MAL Rank (after)” value [7] was 643 and the “P3_MAL Rank (before)” value [8] was 2733.

For PNLRTKVPDYLKRTKT, the “P3_MAL Rank (after)” value [7] was 608 and the “P3_MAL Rank (before)” value [8] was 2730.

PNLRTKVPNYPMLTKT was tested, and the “P3_MAL Rank (after)” value [7] was 640 and the “P3_MAL Rank (before)” value [8] was 2680.

PNLRTNVLHYLMRTKT was tested, and the “Rank (after)” value [3] was 171 and the “Rank (before)” value [4] was 2695.

In the case of PNLRTNVLNYLIRTKT, the “Rank (after)” value [3] is reported as 141 and the “Rank (before)” value [4] is reported as 2745.

With PNLRTNVLNYLMRPKT the “P3_MAL Rank (after)” value [1] was 266 and the “P3_MAL Rank (before)” value [2] was 2696.

In the case of PNLRTNVMNYLMRTKT, the “Rank (after)” value [3] is reported as 175 and the “Rank (before)” value [4] is reported as 2692.

With PNLRTQVQNYLLPNKT the “P3_MAL Rank (after)” value [9] was 524 and the “P3_MAL Rank (before)” value [10] was 2686.

PNLRTTLMTSPMRTKT was tested, and the “P3_MAL Rank (after)” value [7] was 656 and the “P3_MAL Rank (before)” value [8] was 2673.

PNLRTTVLKYLIRTKT was tested, and the “Rank (after)” value [3] was 446 and the “Rank (before)” value [4] was 2749.

With PNLRTTVPTYLMRTKT the “P3_MAL Rank (after)” value [5] was 726 and the “P3_MAL Rank (before)” value [6] was 2689.

With PNLRTTVQNYLMRTKT the “P3_MAL Rank (after)” value [1] was 216 and the “P3_MAL Rank (before)” value [2] was 2690.

PNLSNKVMNYLMRTQT was tested, and the “P3_MAL Rank (after)” value [7] was 634 and the “P3_MAL Rank (before)” value [8] was 2753.

With PNLSPKVLNYLMRTKT the “Rank (after)” value [3] was 181 and the “Rank (before)” value [4] was 2751.

With PQDLEWFYERLVSLIL the “Rank (after)” value [11] was 423 and the “Rank (before)” value [12] was 2328.

With PSEIRKQTGSLPKAFA the “P3_MAL Rank (after)” value [7] was 579 and the “P3_MAL Rank (before)” value [8] was 2665.

PVAHEISKKMQLFATI was tested, and the “P3_MAL Rank (after)” value [7] was 654 and the “P3_MAL Rank (before)” value [8] was 2631.

With PYLRTQVLNYLMRTKN the “P3_MAL Rank (after)” value [9] was 499 and the “P3_MAL Rank (before)” value [10] was 2630.

In the case of QFFWDQLKSILGDTRF, the “P8_MAL Rank (after)” value [9] is reported as 519 and the “P8_MAL Rank (before)” value [10] is reported as 2433.

In the case of QLIQHWIELHQHQLHL, the “P8_MAL Rank (after)” value [7] is reported as 630 and the “P8_MAL Rank (before)” value [8] is reported as 2348.

For QLIQPWMELHLHQLHL, the “P8_MAL Rank (after)” value [1] was 246 and the “P8_MAL Rank (before)” value [2] was 2346.

QLIQQLIELHLDQLHL was tested, and the “P8_MAL Rank (after)” value [7] was 653 and the “P8_MAL Rank (before)” value [8] was 2349.

For QLIQQWIELHAPAAS, the “Rank (after)” value [11] was 151 and the “Rank (before)” value [12] was 969.

For QLIQQWIELQLRQLHL, the “P8_MAL Rank (after)” value [7] was 584 and the “P8_MAL Rank (before)” value [8] was 2356.

With QLIQQWMNCTCTSCI the “Rank (after)” value [11] was 167 and the “Rank (before)” value [12] was 2379.

QLIQQWSELHLHQLQL was tested, and the “Rank (after)” value [11] was 443 and the “Rank (before)” value [12] was 2381.

With QLIQQWSELHLLQLHL the “P8_MAL Rank (after)” value [7] was 621 and the “P8_MAL Rank (before)” value [8] was 2387.

With RAFSSHLRHHLLAKDQ the “P3_MAL Rank (after)” value [5] was 678 and the “P3_MAL Rank (before)” value [6] was 2463.

With RAFVADLDEALKQRAL the “Rank (after)” value [3] was 182 and the “Rank (before)” value [4] was 2432.

In the case of RAFVAHLYEALKKRAN, the “P3_MAL Rank (after)” value [9] is reported as 547 and the “P3_MAL Rank (before)” value [10] is reported as 2451.

In the case of RAFVAHPQELIQKKQQ, the “P3_MAL Rank (after)” value [5] is reported as 739 and the “P3_MAL Rank (before)” value [6] is reported as 2454.

For RDFVAYLCQALANKGI, the “P8_MAL Rank (after)” value [7] was 626 and the “P8_MAL Rank (before)” value [8] was 2172.

RDFVAYLFQALANKGL was tested, and the “P8_MAL Rank (after)” value [7] was 640 and the “P8_MAL Rank (before)” value [8] was 2171.

In the case of REFIKKIILWMNPKIV, the “Rank (after)” value [11] is reported as 109 and the “Rank (before)” value [12] is reported as 2531.

For RFFLESLKQLLRSDGR, the “Rank (after)” value [11] was 455 and the “Rank (before)” value [12] was 2301.

In the case of RFFQNKMRYHLQQLQH, the “P3_MAL Rank (after)” value [9] is reported as 487 and the “P3_MAL Rank (before)” value [10] is reported as 2617.

RFMMKFRTELDRGNGG was tested, and the “P8_MAL Rank (after)” value [9] was 489 and the “P8_MAL Rank (before)” value [10] was 2304.

For RFWERLRYMMPDSSL, the “Rank (after)” value [3] was 449 and the “Rank (before)” value [4] was 2320.

RFWERPRYLTPSNNHR was tested, and the “P3_MAL Rank (after)” value [5] was 769 and the “P3_MAL Rank (before)” value [6] was 2322.

For RFYEAQLILVLRNTKM, the “P8_MAL Rank (after)” value [7] was 672 and the “P8_MAL Rank (before)” value [8] was 2302.

For RGCLSHLRHHLHAKEH, the “P3_MAL Rank (after)” value [7] was 590 and the “P3_MAL Rank (before)” value [8] was 2423.

In the case of RGFLAICVIICRRKI, the “Rank (after)” value [3] is reported as 390 and the “Rank (before)” value [4] is reported as 2406.

With RGFLCHLRHHLQATDH the “P3_MAL Rank (after)” value [5] was 706 and the “P3_MAL Rank (before)” value [6] was 2352.

With RGFLEPLRHHLQAKEQ the “P3_MAL Rank (after)” value [7] was 649 and the “P3_MAL Rank (before)” value [8] was 2355.

In the case of RGFLNHLHHHLQPNDH, the “P3_MAL Rank (after)” value [5] is reported as 703 and the “P3_MAL Rank (before)” value [6] is reported as 2351.

For RGFLNQLRQHLHAKDH, the “P3_MAL Rank (after)” value [9] was 548 and the “P3_MAL Rank (before)” value [10] was 2403.

In the case of RGFLSHLHHALRLNKIEAF, the “P3_MAL Rank (after)” value [5] is reported as 747 and the “P3_MAL Rank (before)” value [6] is reported as 2390.

In the case of RGFLSHLHRYLVQRGV, the “Rank (after)” value [3] is reported as 109 and the “Rank (before)” value [4] is reported as 250.

In the case of RGFLSHLLLHLQAKDH, the “Rank (after)” value [3] is reported as 395 and the “Rank (before)” value [4] is reported as 2364.

For RGFLSHLRHHLPAKDQ, the “P3_MAL Rank (after)” value [9] was 498 and the “P3_MAL Rank (before)” value [10] was 2380.

For RGFLSHLRHHLPAKEH, the “P3_MAL Rank (after)” value [1] was 275 and the “P3_MAL Rank (before)” value [2] was 2395.

RGFLSHLRHHLQAIDH gave a Population of 0.00488%.

In the case of RGFLSHLRHHLQAKD, the “P3_MAL Rank (after)” value [7] is reported as 648 and the “P3_MAL Rank (before)” value [8] is reported as 2376.

RGFLSHLRHHLQEQDH was tested, and the “P3_MAL Rank (after)” value [1] was 256 and the “P3_MAL Rank (before)” value [2] was 2378.

RGFLSHLRHHLQVKEQ was tested, and the “P3_MAL Rank (after)” value [5] was 733 and the “P3_MAL Rank (before)” value [6] was 2370.

In the case of RGFLSHLRHLLQAKDP, the “P3_MAL Rank (after)” value [1] is reported as 193 and the “P3_MAL Rank (before)” value [2] is reported as 2405.

In the case of RGFLSHLRHPVHPKDH, the “P3_MAL Rank (after)” value [7] is reported as 615 and the “P3_MAL Rank (before)” value [8] is reported as 2367.

RGFLSHLRHYLQAKAH was tested, and the “P3_MAL Rank (after)” value [9] was 552 and the “P3_MAL Rank (before)” value [10] was 2430.

With RGFLSHLRNHLQAKDP the “P3_MAL Rank (after)” value [1] was 210 and the “P3_MAL Rank (before)” value [2] was 2408.

RGFLSHLRQHLKAKDH was tested, and the “P3_MAL Rank (after)” value [9] was 497 and the “P3_MAL Rank (before)” value [10] was 2386.

RGFLSHLRYHLPAPQH was tested, and the “Rank (after)” value [3] was 129 and the “Rank (before)” value [4] was 333.

In the case of RGFLSHLSHPLQAKDP, the “P3_MAL Rank (after)” value [7] is reported as 585 and the “P3_MAL Rank (before)” value [8] is reported as 2391.

In the case of RGFLSHLSNLLQAKDH, the “P3_MAL Rank (after)” value [1] is reported as 205 and the “P3_MAL Rank (before)” value [2] is reported as 2392.

In the case of RGFLSHLYQGLKNRGI, the “Rank (after)” value [3] is reported as 423 and the “Rank (before)” value [4] is reported as 2362.
